Measurements from patent publication US9139577B2, “Sulfoximine substituted quinazolines for pharmaceutical compositions” (Boehringer Ingelheim International GmbH, priority 2013, dated 2015).

Key:
[1] = test system: MNK2 (MNK2a or MNK2b) or MNK1; conditions: cell culture cells transfected with MNK2 (MNK2a or MNK2b) or MNK1; cited from earlier work
MNK2a = MNK2a (Homo sapiens (Human), UniProt Q9HBH9); test: MNK2a in vitro kinase assay (Assay 2), ADP-Glo; format: biochemical; conditions: read-out: MNK2 IC50
MNK1 = MNK1 (Homo sapiens (Human), UniProt Q9BUB5); test: MNK1 in vitro kinase assay (Assay 3), Z'-LYTE; format: biochemical; conditions: for inhibition at 1 µM: compound concentration of 1 μM, read-out: MNK1 % INH
Summary of the method: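 Pre-activated GST-MNK1a phosphorylated a FRET peptide for 60 min at room temperature in HEPES pH 7.5 buffer with Mg2+/Mn2+, EGTA and DTT, with 1% DMSO final. Protease development followed for 60 min.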

Sequence of MNK1 (Q9BUB5 other isoform, or with tags, fused parts or gaps): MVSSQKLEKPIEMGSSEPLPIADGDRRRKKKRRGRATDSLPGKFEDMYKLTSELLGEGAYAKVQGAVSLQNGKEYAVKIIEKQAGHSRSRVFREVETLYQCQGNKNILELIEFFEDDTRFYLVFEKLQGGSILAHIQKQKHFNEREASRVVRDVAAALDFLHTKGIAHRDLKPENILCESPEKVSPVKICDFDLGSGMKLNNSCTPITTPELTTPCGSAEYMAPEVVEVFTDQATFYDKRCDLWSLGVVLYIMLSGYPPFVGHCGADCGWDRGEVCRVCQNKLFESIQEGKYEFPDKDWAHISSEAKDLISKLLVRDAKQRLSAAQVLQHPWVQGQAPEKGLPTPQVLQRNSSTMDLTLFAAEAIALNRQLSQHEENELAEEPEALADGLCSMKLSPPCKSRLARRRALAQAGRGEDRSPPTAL
Sequence of MNK2a (Q9HBH9 whole entry): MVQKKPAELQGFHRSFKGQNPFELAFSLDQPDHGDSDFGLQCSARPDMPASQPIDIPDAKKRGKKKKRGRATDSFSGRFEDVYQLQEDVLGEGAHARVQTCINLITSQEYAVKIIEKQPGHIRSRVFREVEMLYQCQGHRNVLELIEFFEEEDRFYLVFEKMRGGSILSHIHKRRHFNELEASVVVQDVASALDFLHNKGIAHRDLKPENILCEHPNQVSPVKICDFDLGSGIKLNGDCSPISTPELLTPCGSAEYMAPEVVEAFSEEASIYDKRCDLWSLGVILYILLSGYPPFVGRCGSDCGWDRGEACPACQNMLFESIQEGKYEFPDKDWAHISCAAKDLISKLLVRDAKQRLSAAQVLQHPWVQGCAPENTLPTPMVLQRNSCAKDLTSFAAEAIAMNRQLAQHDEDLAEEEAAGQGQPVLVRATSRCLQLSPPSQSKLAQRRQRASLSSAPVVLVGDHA

| SMILES | IC50 (MNK2a) [nM] | inhibition at 1 µM (MNK1) [%] | IC50 (MNK1) [nM] | reduction of phosphorylated eIF4E [1] |
| --- | --- | --- | --- | --- |
| Nc1ncnc2n[nH]c(Nc3ccc(F)cc3)c12 [CGP57380] |  |  |  | strong reduction of phosphorylated eIF4E |
| Cc1cc(N=S2(=O)CCCC2)cc2ncnc(Nc3ccc(F)cc3O[C@H](C)C(=O)N[C@H]3CCOC3)c12 [Example 4.057] | 2 | 102 |  |  |
| Cc1cc(N=S2(=O)CCCC2)cc2ncnc(Nc3ccc(F)cc3O[C@H](C)C(=O)NCC(C)(C)O)c12 [Example 4.058] | 3 |  | 75 |  |
| COC1CCN(C(=O)[C@@H](C)Oc2cc(F)ccc2Nc2ncnc3cc(N=S4(=O)CCCC4)cc(C)c23)CC1 [Example 4.059] | 4 | 90 |  |  |
| Cc1cc(N=S(C)(C)=O)cc2ncnc(Nc3ccc(F)cc3O[C@H](C)C(=O)NC(C)C)c12 [Example 4.060] | 2 | 99 |  |  |
| Cc1cc(N=S(C)(C)=O)cc2ncnc(Nc3ccc(F)cc3O[C@H](C)C(=O)N(C)CCO)c12 [Example 4.061] | 13 | 70 |  |  |
| Cc1cc(N=S(C)(C)=O)cc2ncnc(Nc3ccc(F)cc3O[C@H](C)C(=O)N3CCCCC3)c12 [Example 4.062] | 13 | 88 |  |  |
| Cc1cc(N=S2(=O)CCCC2)cc2ncnc(Nc3ccc(F)cc3O[C@H](C)C(=O)N(C)CCc3ccccc3)c12 [Example 4.063] | 10 | 56 |  |  |
| Cc1cc(N=S(C)(C)=O)cc2ncnc(Nc3ccc(F)cc3O[C@H](C)C(=O)N(C)C(C)C)c12 [Example 4.064] | 8 | 82 |  |  |
| Cc1cc(N=S(C)(C)=O)cc2ncnc(Nc3ccc(F)cc3O[C@H](C)C(=O)N[C@@H]3CCC[C@H]3O)c12 [Example 4.065] | 9 | 93 |  |  |
| Cc1cc(N=S2(=O)CCCC2)cc2ncnc(Nc3ccc(F)cc3O[C@H](C)C(=O)N3CCCCC3)c12 [Example 4.067] | 3 | 97 |  |  |
| CCN(C)C(=O)[C@@H](C)Oc1cc(F)ccc1Nc1ncnc2cc(N=S(C)(C)=O)cc(C)c12 [Example 4.068] | 4 | 86 |  |  |
| Cc1cc(N=S(C)(C)=O)cc2ncnc(Nc3ccc(F)cc3O[C@H](C)C(=O)NCC(C)(C)O)c12 [Example 4.069] | 6 | 93 |  |  |
| Cc1cc(N=S(C)(C)=O)cc2ncnc(Nc3ccc(F)cc3O[C@H](C)C(=O)NCC(F)(F)F)c12 [Example 4.071] | 1 |  | 55 |  |
| Cc1cc(N=S2(=O)CCCC2)cc2ncnc(Nc3ccc(F)cc3O[C@H](C)C(=O)NCCO)c12 [Example 4.072] | 3 | 98 |  |  |
| Cc1cc(N=S2(=O)CCCC2)cc2ncnc(Nc3ccc(F)cc3O[C@H](C)C(=O)NCC(F)(F)F)c12 [Example 4.074] | 1 |  | 38 |  |
| Cc1cc(N=S2(=O)CCCC2)cc2ncnc(Nc3ccc(F)cc3O[C@H](C)C(=O)N[C@@H]3CCC[C@@H]3O)c12 [Example 4.075] | 9 | 90 |  |  |
| Cc1cc(N=S(C)(C)=O)cc2ncnc(Nc3ccc(Cl)cc3O[C@H](C)C(=O)N[C@@H](C)C(F)(F)F)c12 [Example 4.088] | 2 | 99 | 36 |  |
| C[C@@H](Oc1cc(F)ccc1Nc1ncnc2cc(N=S3(=O)CCC3)cc(F)c12)C(=O)NCC(F)(F)F [Example 4.100] | 2 | 97 | 14 |  |
| Cc1cc(N=S2(=O)CCC2)cc2ncnc(Nc3ccc(F)cc3O[C@H](C)C(=O)N[C@@H](C)C(F)(F)F)c12 [Example 4.104] | 1 | 100 |  |  |
| C[C@H](NC(=O)[C@@H](C)Oc1cc(F)ccc1Nc1ncnc2cc(N=S(C)(C)=O)cc(F)c12)C(F)(F)F [Example 4.118] | 3 | 99 | 21 |  |
| C[C@H](NC(=O)[C@@H](C)Oc1cc(F)ccc1Nc1ncnc2cc(N=S3(=O)CCC3)cc(F)c12)C(F)(F)F [Example 4.136] | 1 | 93 | 29 |  |
| C[C@@H](Oc1cc(F)ccc1Nc1ncnc2cc(N=S3(=O)CCC3)cc(Cl)c12)C(=O)NCC(F)(F)F [Example 4.138] | 1 | 64 | 27 |  |

Now from value to compound, other results behind:

| IC50 (MNK2a) [nM] | inhibition at 1 µM (MNK1) [%] | IC50 (MNK1) [nM] | SMILES | reduction of phosphorylated eIF4E [1] |
| --- | --- | --- | --- | --- |
| 1 | 97 |  | Cc1cc(N=S(C)(C)=O)cc2ncnc(Nc3ccc(F)cc3O[C@@H](C)CNS(C)(=O)=O)c12 [Example 5.001] |  |
| 7 | 88 |  | CC(=O)NC[C@H](C)Oc1cc(F)ccc1Nc1ncnc2cc(N=S(C)(C)=O)cc(C)c12 [Example 5.002] |  |
| 83 | 38 |  | Cc1cc(N=S(C)(C)=O)cc2ncnc(Nc3ccc(F)cc3O[C@H](C)CNS(C)(=O)=O)c12 [Example 5.003] |  |
| 2 |  | 66 | Cc1cc(N=S(C)(C)=O)cc2ncnc(Nc3ccc(F)cc3O[C@@H](C)CNC(=O)C(F)(F)F)c12 [Example 5.004] |  |
| 2 | 95 |  | CC(=O)N1CCS(=O)(=Nc2cc(C)c3c(Nc4ccc(F)cc4O[C@H](C)c4cc(C)no4)ncnc3c2)CC1 [Example 5.005] |  |
| 29 | 78 |  | CCNC(=O)NC[C@@H](C)Oc1cc(F)ccc1Nc1ncnc2cc(N=S(C)(C)=O)cc(C)c12 [Example 5.006] |  |
| 4 | 97 |  | COCC(=O)N1CCS(=O)(=Nc2cc(C)c3c(Nc4ccc(F)cc4O[C@H](C)c4cc(C)no4)ncnc3c2)CC1 [Example 5.007] |  |
| 2 |  | 39 | CCNC(=O)N1CCS(=O)(=Nc2cc(C)c3c(Nc4ccc(F)cc4O[C@H](C)c4cc(C)no4)ncnc3c2)CC1 [Example 5.008] |  |
| 35 | 74 |  | CC(=O)NC[C@@H](C)Oc1cc(F)ccc1Nc1ncnc2cc(N=S(C)(C)=O)cc(C)c12 [Example 5.009] |  |
| 28 | 62 |  | Cc1cc(N=S(C)(C)=O)cc2ncnc(Nc3ccc(F)cc3O[C@H](C)CNC(=O)C(F)(F)F)c12 [Example 5.010] |  |
| 99 | 27 |  | Cc1cc(N=S(C)(C)=O)cc2ncnc(Nc3ccc(F)cc3O[C@H](C)CNS(=O)(=O)C(F)(F)F)c12 [Example 5.011] |  |
| 56 | 61 |  | CCC(=O)NC[C@@H](C)Oc1cc(F)ccc1Nc1ncnc2cc(N=S(C)(C)=O)cc(C)c12 [Example 5.012] |  |
| 1 | 98 |  | Cc1cc([C@@H](C)Oc2cc(F)ccc2Nc2ncnc3cc(N=S4(=O)CCN(C)CC4)cc(C)c23)on1 [Example 7.001] |  |
| 2 | 102 |  | COc1cc(N=S(C)(C)=O)cc2ncnc(Nc3ccc(F)cc3OC(C)c3cc(C)no3)c12 (stereo not shown) [Example 7.003] |  |
| 3 | 93 |  | Cc1cc(N=S(C)(C)=O)cc2ncnc(Nc3ccc(F)cc3OC(C)C#N)c12 (stereo not shown) [Example 7.005] |  |
| 3 | 99 |  | Cc1cc(N=S2(=O)CCCC2)cc2ncnc(Nc3ccc(F)cc3OC(C)C#N)c12 (stereo not shown) [Example 7.008] |  |
